# Data published in patent US12448391B2, “Bicyclic derivatives for treating endoparasites” (Elanco Tiergesundheit AG, priority 2019, dated 2025).
# Tests used:
# H. contortus larvae = assay: H. contortus Larval Development Assay (Hc LDA); conditions: Haemonchus contortus, read-out: EC50 (motility inhibition)
# Description: Ruminant Gastrointestinal (H. contortus Larval Development Assay (Hc LDA)):
# H.c. eggs isolated from lamb fecal matter are allowed to hatch overnight. Test compounds are diluted in DMSO and added to a 96-well plate containing appropriate media. H.c. larvae are added to each well and plates are incubated for the desired time(s). Motility is assessed using an LCD camera imaging system. Percent motility inhibition values are generated relative to the average of the DMSO-only wells.
# D. immitis microfilariae = assay: Dog heart worm microfilariae motility assay; assay type: cell-based; conditions: Dirofilaria immitis, read-out: EC50 (motility inhibition)
# Caenorhabditis elegans = assay: C. elegans development assay (Ce DA); conditions: 48 h, read-out: EC90 (motility reduction)
# Description: Caenorhabditis elegans (Ce): C. elegans development assay (Ce DA) measures the effect of compounds on developing nematodes. Eggs of C. elegans are deposited in a 384 well plate together with food (E. coli) and the treatment formulated in DMSO. Plates are incubated at 25° C. for 48 h to allow the development of nematodes up to the L4-stage. The effect of compounds is measured as motility reduction. Efficacy is expressed in % motility reduction compared to negative controls.
Structure (SMILES),EC50 (H. contortus larvae) [µg/mL],EC50 (D. immitis microfilariae) [µg/mL],EC90 (Caenorhabditis elegans) [µg/mL]
"CN(C)c1c(C(=O)NN2CCOc3ccccc32)ccc2c(-c3cc(Cl)cc(Cl)c3)cccc12 [Example 4.1, 5-(3,5-dichlorophenyl)-N-(2,3-dihydro-1,4-benzoxazin-4-yl)-1-(dimethylamino)naphthalene-2-carboxamide]",< 1,< 0.1,–
"CN(C)c1c(C(=O)NN2CCOc3ccccc32)cnc2c(-c3cc(Cl)cc(Cl)c3)cccc12 [Example 5.1, 8-(3,5-dichlorophenyl)-N-(2,3-dihydro-4H-benzo[b][1,4]oxazin-4-yl)-4-(dimethylamino)quinoline-3-carboxamide]",< 1,< 0.1,–
"O=C(NN1CCOc2ccccc21)c1cnc2c(-c3cccc(Cl)c3Cl)cccc2c1N1CCOCC1 [Example 5.2, 8-(2,3-dichlorophenyl)-N-(2,3-dihydro-1,4-benzoxazin-4-yl)-4-morpholino-quinoline-3-carboxamide]",< 1,< 0.1,–
"O=C(NN1CCOc2ccccc21)c1cnc2c(-c3cc(Cl)cc(Cl)c3)cccc2c1N1CCOCC1 [Example 5.3, 8-(3,5-dichlorophenyl)-N-(2,3-dihydro-1,4-benzoxazin-4-yl)-4-morpholino-quinoline-3-carboxamide]",< 1,< 0.1,–
"O=C(NN1CCOc2ccccc21)c1cnc2c(-c3cc(F)cc(F)c3F)c(F)ccc2c1N1CCOCC1 [Example 5.4, N-(2,3-dihydro-1,4-benzoxazin-4-yl)-7-fluoro-4-morpholino-8-(2,3,5-trifluorophenyl)quinoline-3-carboxamide]",< 1,< 0.1,–
"O=C(NN1CCOc2ccccc21)c1cnc2c(-c3cc(F)cc(F)c3F)cccc2c1N1CCOCC1 [Example 5.6, N-(2,3-dihydro-1,4-benzoxazin-4-yl)-4-morpholino-8-(2,3,5-trifluorophenyl)quinoline-3-carboxamide]",< 1,< 0.1,–
"O=C(NN1CCOc2ccccc21)c1cnc2c(-c3cc(Cl)cc(Cl)c3)c(F)ccc2c1N1CCOCC1 [Example 5.7, 8-(3,5-dichlorophenyl)-N-(2,3-dihydro-1,4-benzoxazin-4-yl)-7-fluoro-4-morpholino-quinoline-3-carboxamide]",< 1,< 0.1,–
"O=C(NN1CCOc2ccccc21)c1cnc2c(-c3cc(F)cc(F)c3)c(F)ccc2c1N1CCOCC1 [Example 5.8, 8-(3,5-difluorophenyl)-N-(2,3-dihydro-1,4-benzoxazin-4-yl)-7-fluoro-4-morpholino-quinoline-3-carboxamide]",< 1,< 0.1,–
"O=C(NN1CCOc2ccccc21)c1cnc2c(-c3cc(Cl)nc(C(F)(F)F)c3)cccc2c1N1CCOCC1 [Example 5.11, 8-[2-chloro-6-(trifluoromethyl)-4-pyridyl]-N-(2,3-dihydro-1,4-benzoxazin-4-yl)-4-morpholino-quinoline-3-carboxamide]",< 1,< 0.1,–
"O=C(NN1CCOc2ccccc21)c1cnc2c(-c3cc(Cl)nc(Cl)c3)cccc2c1N1CCOCC1 [Example 5.12, 8-(2,6-dichloro-4-pyridyl)-N-(2,3-dihydro-1,4-benzoxazin-4-yl)-4-morpholino-quinoline-3-carboxamide]",< 1,< 0.1,–
"O=C(NN1CCOc2ccccc21)c1cnc2c(-c3cc(Cl)cc(Cl)c3F)cccc2c1N1CCOCC1 [Example 5.13, 8-(3,5-dichloro-2-fluoro-phenyl)-N-(2,3-dihydro-1,4-benzoxazin-4-yl)-4-morpholino-quinoline-3-carboxamide]",< 1,< 0.1,–
"O=C(NN1CCOc2ccccc21)c1cnc2c(-c3cc(Cl)cnc3F)cccc2c1N1CCOCC1 [Example 5.14, 8-(5-chloro-2-fluoro-3-pyridyl)-N-(2,3-dihydro-1,4-benzoxazin-4-yl)-4-morpholino-quinoline-3-carboxamide]",< 1,< 0.1,–
"O=C(NN1CCOc2ccccc21)c1cnc2c(-c3cc(F)cc(F)c3F)cccc2c1N1CCS(=O)(=O)CC1 [Example 5.15, N-(2,3-dihydro-1,4-benzoxazin-4-yl)-4-(1,1-dioxo-1,4-thiazinan-4-yl)-8-(2,3,5-trifluorophenyl)quinoline-3-carboxamide]",< 1,< 0.1,–
"O=C(NN1CCOc2ccccc21)c1cnc2c(-c3cc(F)c(F)cc3F)cccc2c1N1CCOCC1 [Example 5.16, N-(2,3-dihydro-1,4-benzoxazin-4-yl)-4-morpholino-8-(2,4,5-trifluorophenyl)quinoline-3-carboxamide]",< 1,< 0.1,–
"O=C(NN1CCOc2ccccc21)c1cnc2c(-c3cncc(Cl)n3)cccc2c1N1CCOCC1 [Example 5.17, 8-(6-chloropyrazin-2-yl)-N-(2,3-dihydro-1,4-benzoxazin-4-yl)-4-morpholino-quinoline-3-carboxamide]",< 1,< 0.1,–
"O=C(NN1CCOc2ccccc21)c1cnc2c(-c3cncc(Cl)c3Cl)cccc2c1N1CCOCC1 [Example 5.18, 8-(4,5-dichloro-3-pyridyl)-N-(2,3-dihydro-1,4-benzoxazin-4-yl)-4-morpholino-quinoline-3-carboxamide]",< 1,< 0.1,–

Structure (SMILES),EC50 (H. contortus larvae) [µg/mL],EC50 (D. immitis microfilariae) [µg/mL],EC90 (Caenorhabditis elegans) [µg/mL]
"O=C(NN1CCOc2ccccc21)c1cnc2c(-c3cc(Cl)cc(F)c3F)cccc2c1N1CCOCC1 [Example 5.19, 8-(5-chloro-2,3-difluoro-phenyl)-N-(2,3-dihydro-1,4-benzoxazin-4-yl)-4-morpholino-quinoline-3-carboxamide]",< 1,< 0.1,–
"O=C(NN1CCOc2ccccc21)c1cnc2c(-c3cc(F)c(F)c(F)c3F)cccc2c1N1CCOCC1 [Example 5.20, N-(2,3-dihydro-1,4-benzoxazin-4-yl)-4-morpholino-8-(2,3,4,5-tetrafluorophenyl)quinoline-3-carboxamide]",< 1,< 0.1,–
"O=C(NN1CCOc2ccccc21)c1cnc2c(-c3cncc(F)c3Cl)cccc2c1N1CCOCC1 [Example 5.21, 8-(4-chloro-5-fluoro-3-pyridyl)-N-(2,3-dihydro-1,4-benzoxazin-4-yl)-4-morpholino-quinoline-3-carboxamide]",< 1,< 0.1,–
"O=C(NN1CCOc2ccccc21)c1cnc2c(-c3cc(Cl)cc(C(F)(F)F)n3)cccc2c1N1CCOCC1 [Example 5.22, 8-[4-chloro-6-(trifluoromethyl)-2-pyridyl]-N-(2,3-dihydro-1,4-benzoxazin-4-yl)-4-morpholino-quinoline-3-carboxamide]",< 1,< 0.1,–
"O=C(NN1CCc2ccccc21)c1cnc2c(-c3cc(F)cc(F)c3F)cccc2c1N1CCOCC1 [Example 5.24, N-indolin-1-yl-4-morpholino-8-(2,3,5-trifluorophenyl)quinoline-3-carboxamide]",< 1,< 0.1,–
"N#Cc1ccc2c(N3CCOCC3)c(C(=O)NN3CCOc4ccccc43)cnc2c1-c1cc(Cl)cc(Cl)c1 [Example 5.35, 7-cyano-8-(3,5-dichlorophenyl)-N-(2,3-dihydro-1,4-benzoxazin-4-yl)-4-morpholino-quinoline-3-carboxamide]",–,–,< 1
"O=C(NN1CCOc2ccccc21)c1cnc2c(-c3cc(F)cc(F)c3F)cccc2c1C1CC1 [Example 5.36, 4-cyclopropyl-N-(2,3-dihydro-1,4-benzoxazin-4-yl)-8-(2,3,5-trifluorophenyl)quinoline-3-carboxamide]",–,–,< 1
"O=C(NN1CCOc2ccccc21)c1cnc2c(-c3cc(F)c(F)c(F)c3)c(F)ccc2c1N1CCOCC1 [Example 5.41, N-(2,3-dihydro-1,4-benzoxazin-4-yl)-7-fluoro-4-morpholino-8-(3,4,5-trifluorophenyl)quinoline-3-carboxamide]",–,–,< 1
"O=C(NN1CCOc2ccccc21)c1cnc2c(-c3cc(F)cc(F)c3F)cccc2c1C1CCOCC1 [Example 5.45, N-(2,3-dihydro-1,4-benzoxazin-4-yl)-4-tetrahydropyran-4-yl-8-(2,3,5-trifluorophenyl)quinoline-3-carboxamide]",–,–,< 1
"O=C(NN1CCOc2ccccc21)c1cnc2c(-c3cc(Cl)cc(Cl)c3F)c(F)ccc2c1N1CCOCC1 [Example 5.47, 8-(3,5-dichloro-2-fluoro-phenyl)-N-(2,3-dihydro-1,4-benzoxazin-4-yl)-7-fluoro-4-morpholino-quinoline-3-carboxamide]",–,–,< 1
"O=C(NN1CCOc2ccccc21)c1cnc2c(-c3cc(Cl)c(F)c(Cl)c3F)c(F)ccc2c1N1CCOCC1 [Example 5.48, 8-(3,5-dichloro-2,4-difluoro-phenyl)-N-(2,3-dihydro-1,4-benzoxazin-4-yl)-7-fluoro-4-morpholino-quinoline-3-carboxamide]",–,–,< 1
"O=C(NN1CCOc2ccccc21)c1cnc2c(-c3cc(F)nc(F)c3F)cccc2c1N1CCOCC1 [Example 5.49, N-(2,3-dihydro-1,4-benzoxazin-4-yl)-4-morpholino-8-(2,3,6-trifluoro-4-pyridyl)quinoline-3-carboxamide]",–,–,< 1
"O=C(NN1CCc2ccccc21)c1cnc2c(-c3cc(Cl)c(F)c(Cl)c3F)c(F)ccc2c1N1CCOCC1 [Example 5.54, 8-(3,5-dichloro-2,4-difluoro-phenyl)-7-fluoro-N-indolin-1-yl-4-morpholino-quinoline-3-carboxamide]",–,–,< 1
"O=C(NN1CCOc2ccccc21)c1cnc2c(-c3cc(Cl)cc(Cl)c3)ncnc2c1N1CCOCC1 [Example 6.1, 4-(3,5-dichlorophenyl)-N-(2,3-dihydro-1,4-benzoxazin-4-yl)-8-morpholino-pyrido[3,2-d]pyrimidine-7-carboxamide]",< 1,< 0.1,–
"O=C(NN1CCOc2ccccc21)c1cnc2c(-c3cc(Cl)cc(Cl)c3)cncc2c1N1CCOCC1 [Example 7.1, 8-(3,5-dichlorophenyl)-N-(2,3-dihydro-1,4-benzoxazin-4-yl)-4-morpholino-1,6-naphthyridine-3-carboxamide]",< 1,< 0.1,–
